Measured values published in patent US7220729B2, “Huntington's Disease Treatment” (Academia Sinica, priority 2004, dated 2007).

Assays:
[1] = test system: R6/2 mice; assay: Striatal atrophy / lateral ventricle enlargement on coronal brain sections; type: in vivo, mouse; conditions: R6/2 mice at 12 weeks old; vehicle 1.63±0.14, p<0.001, n=5
Experimental: Striatal atrophy is one of the major characteristics of HD. In R6/2 mice, marked progressive atrophy of the striatum was found at the age of 3 to 13 weeks (Ferrante et al., J. Neurosci. 2000;20:4389–4397). Thus, the above-described CGS 21680-treated and vehicle-treated R6/2 mice were examined for striatal atrophy.
Each of the mice was anesthetized using sodium pentobarbital (100 μg/g), and intracardially perfused with 4% paraformaldehyde in 0.1 M phosphate buffer (PB, pH 7.4). The brain was carefully removed, post-fixed with 4% paraformaldehyde/0.1 M PB for 2–5 hours, and immersed in 30% glycerol in 0.1 M PB. Then, it was cut at 20 μm on a freezing microtome (CM3050, Leica Microsystems Nussloch, Nussloch, Germany). Serial-cut coronal tissue sections from the rostral segment of the neostriatum to the level of the anterior commissure (interaural 5.34 mm/bregma 1.54 mm to interaural 3.7 mm/bregma −0.1 mm) were used to define atrophy of the striatum and enlargement of the lateral ventricles. Total areas of the striatum or the lateral ventricles were measured using the software NIH Image 1.62. Nissl-stained sections were quantified by counting the corresponding types of cells in defined areas of photomicrographs taken using a phase contrast microscope.

[2] = test system: R6/2 mice; assay: Blood glucose level in R6/2 mice; type: in vivo, mouse; conditions: chronic treatment, untreated R6/2 higher than wild type by approximately 1-fold
Experimental: Hyperglycemia has been found in HD patients and R6/2 mice. […] The above-described R6/2 mice and wild type littermates were decapitated and blood samples (1 to 1.5 ml) were collected from each mouse using standard techniques. Blood glucose levels were measured using ABBOTT Alcyon 300i (ABBOTT Labs, USA).

[3] = test system: R6/2 mice; assay: Locomotor activity (beam breaks in activity monitor) of R6/2 mice; type: in vivo, mouse; conditions: week 2 after administration, 5 μg/g i.p. daily, vs vehicle, statistically significant (Student's t-test)
Experimental: Twenty-four hours after each administration, the locomotor activity of each mouse was measured for 10 minutes according to the method described in Lee et al., Chin. J. Physiol. 1992;35:317–336. Briefly, each mouse was placed in an activity monitor (Coulbourn Instruments, Allentown, Pa., USA) equipped with 16×16 horizontal sensors, which were used to monitor the mouse's floor position. The locomotor activity was measured by the total number of beam breaks in an X-Y plane recorded every 10 minutes.

[4] = test system: adenylyl cyclase; assay: Adenylyl cyclase activity assay on striatal membrane fractions; type: biochemical, mouse; conditions: striatal membranes of R6/2 mice compared with wild type mice
Experimental: Briefly, striatal tissues were isolated from the mice and sonicated in a lysis buffer (0.4 mM EDTA, 1 mM EGTA, 25 mM Tris-HCl, 250 mM sucrose, 0.1 mM leupeptin, and 40 μM PMSF, pH 7.4) using a W-380 sonicator (Ultrasonics, Farmingdale, N.Y., USA) at a setting of 20% output power for a total of 45 seconds. The resultant homogenate was centrifuged at 50,000×g for 30 minutes and the P1 membrane fractions and the soluble fractions were collected. The adenylyl cyclase activity assay was performed at 37° C. for 10 minutes in a 400-μl reaction mixture containing 1 mM ATP, 100 mM NaCl, 50 mM Hepes, 0.2 mM EGTA, 100 μM rolipram, 6 mM MgCl2, 1 μM GTP, and 20 μg of membrane protein. The reactions were stopped by adding 0.6 ml of 10% TCA. The cAMP formed was isolated by Dowex chromatography (Sigma, St. Louis, Mo., USA) and was assayed to the method described in Chern et al. The enzymatic reaction was in a linear range for up to 30 minutes with up to 40 μg of membrane proteins.

[5] = test system: AMPK; assay: Western blot of AMPK protein and Thr172 phosphorylation in striatal cytosolic fraction of treated R6/2 mice; type: in vivo, mouse; conditions: striatum of R6/2 mice, 5 μg/g i.p. once a day up to 3.5 weeks
Experimental: Male R6/2 mice and wild type littermates were obtained from Jackson Laboratories (Bar Harbor, Me., USA) and were mated with female control mice (B6CBAFI/J). Each offspring was genotyped by PCR using genomic DNA extracted from the tail to ensure that the number of CAG repeats remained approximately 150. Primers used were [NT] ID NO:1) and [NT] ID NO:2). All animal experiments were performed under protocols approved by the Academia Sinica Institutional Animal Care and Utilization Conunittee, Taiwan. […] Then, the striatal cytosolic fraction was collected from each mouse and subjected to Western blot analysis using the standard techniques as described in Rutter et al., Biochem. J. 2003;375:1-16. More specifically, membrane fractions were combined with a 2× sample buffer containing 125 mM Tris-HCl (pH 6.8), 20% glycerol, 1% SDS, 15% 2-mercaptoethanol, 200 mM dithiothreitol, and 0.01% bromphenol blue; boiled for 5 minutes; centrifuged to remove the insoluble material; and then separated on 8% separating gels. […] The phosphorylation of AMPK at Thr172 was quantified by densitometry of the anti-AMPK-P immunoreactive bands using ImageQuant v.3.15 (Molecular Dynamics).

[6] = test system: R6/2 mice; assay: Motor coordination by rotarod performance; type: in vivo, mouse; conditions: treatment from 7 weeks of age, vs vehicle
From the text: The motor coordination of each mouse was also examined by rotarod performance using standard techniques. […] It is known that the motor coordination of an R6/2 mouse starts to deteriorate at the age of 4 weeks, which is 3 weeks prior to the time of the CGS 21680 treatment. It is expected that CGS 21680 administration prior to 4 week of age might improve the motor coordination of an R6/2 mouse.

[7] = test system: NGF, CNTF, GDNF, BDNF, bFGF; assay: Quantitative real-time RT-PCR of striatal neurotrophic factors; type: in vivo, mouse; conditions: R6/2 mice, mRNA normalized to GAPDH, vs vehicle
Experimental: Total RNA was purified from each of the above-described administrated mice and their littermates, and was treated with RNase-free DNase I (RQI, Promega, Madison, Wis., USA) following the manufacturer's protocol to remove genomic DNA. cDNA synthesis and quantitative real-time RT-PCR were performed using the […] One-Step RT-PCR kit (Clontech, Palo Alto, Calif., USA) containing SYBR Green I (BioWhittaker Molecular Applications; BMA, Rockland, Me., USA). More specifically, the first-strand cDNA was synthesized at 50° C. for 60 minutes and denatured at 95° C. for 10 minutes. PCR reactions were then carried out in the same tubes using the following conditions for 40 cycles: 95° C. for 30 seconds, 60° C. for 30 seconds, and 68° C. for 60 seconds.
Independent RT-PCRs were performed using the same RNAs for each neurotrophic factor gene (target gene) and glyceraldehyde-3-phosphate dehydrogenase (GAPDH, reference gene). Real-time fluorescence monitoring and melting curve analysis were performed using Rotor-Gene 3000 (Corbett Research, Sydney, Australia). […] Data were analyzed by the Rotor-Gene 3000 operating software version 4.6.94 (Corbett Research) to determine the threshold cycle (CT) above the background for each reaction. The relative transcript amount of each target gene, calculated using standard curves of serial RNA dilutions, was normalized to that of GAPDH amplified from the same RNA.

## CCNC(=O)[C@H]1O[C@@H](n2cnc3c(N)nc(NCCc4ccc(CCC(=O)O)cc4)nc32)[C@H](O)[C@@H]1O [CGS21680]
[1]
  size of ventricular enlargement: 0.91±0.14 mm^2
[2]
  blood glucose level: reduced the aberrantly elevated blood glucose level in R6/2 mice to a level comparable to that in the wild type mice
[3]
  locomotor activity: did not exhibit such deterioration, but showed improvement in the locomotor activity
[4]
  adenylyl cyclase activities induced by the compound, R6/2 vs wild type mice: much higher level than those in the wild type mice
[5]; vs vehicle
  reduction of AMPK phosphorylation level (Thr172): about 35%
[5]; compared with vehicle R6/2 and wild type
  AMPK protein level: about the same AMPK protein level
[6]
  motor coordination (rotarod performance): No difference was found
[7]
  striatum expression level of trophic factors: did not change
